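Cultured in 96-well plates, cells were exposed to test compound for 48 hours across five concentrations. Here, GI50 denotes the concentration required for 50% inhibition of growth. Definition used: TGI = concentration required for complete inhibition of growth.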
Legend:
Assay in all cases: DTP human tumour cell line panel, 48 h
[1] = test system: UO-31 renal
[2] = test system: SF-295 CNS
[3] = test system: NCI-H460 lung
[4] = test system: 786-0 renal
[5] = test system: ACHN renal
[6] = test system: HT29 colon
[7] = test system: NCI-H226 lung
[8] = test system: CCRF-CEM leukemia
[9] = test system: OVCAR-3 ovarian
[10] = test system: SK-MEL-2 melanoma
[11] = test system: BT-549 breast
[12] = test system: LOX IMVI melanoma
[13] = test system: HCT-116 colon
[14] = test system: K-562 leukemia
[15] = test system: U251 CNS
[16] = test system: COLO 205 colon
[17] = test system: RXF 393 renal
[18] = test system: DU-145 prostate
[19] = test system: SNB-19 CNS
[20] = test system: MCF7 breast
[21] = test system: SK-MEL-28 melanoma
[22] = test system: T-47D breast
[23] = test system: MDA-MB-435
[24] = test system: SW-620 colon
[25] = test system: MDA-MB-231 breast
[26] = test system: HL-60(TB) leukemia
[27] = test system: NCI-H23 lung
[28] = test system: IGROV1 ovarian
[29] = test system: RPMI-8226 leukemia
[30] = test system: TK-10 renal
[31] = test system: M14 melanoma
[32] = test system: HOP-92 NSCLC
[33] = test system: A498 renal
[34] = test system: MOLT-4 leukemia
[35] = test system: CAKI-1 renal
[36] = test system: PC-3 prostate
[37] = test system: OVCAR-4 ovarian
[38] = test system: HCC-2998 colon
[39] = test system: NCI/ADR-RES ovarian
[40] = test system: UACC-62 melanoma
[41] = test system: SK-MEL-5 melanoma
[42] = test system: SN12C renal
[43] = test system: NCI-H522 lung
[44] = test system: A549 NSCLC
[45] = test system: OVCAR-8 ovarian
[46] = test system: SR leukemia
[47] = test system: HOP-62 NSCLC
[48] = test system: EKVX NSCLC
[49] = test system: UACC-257 melanoma
[50] = test system: HS 578T breast
[51] = test system: SF-268 CNS
[52] = test system: OVCAR-5 ovarian
[53] = test system: SNB-75 CNS
[54] = test system: MALME-3M melanoma
[55] = test system: HCT-15 colon
[56] = test system: SK-OV-3 ovarian
[57] = test system: KM12 colon

## CCN(CC)CCCCCCCNc1c2ccc(Cl)cc2nc2ccc(OC)cc12
[1]
  GI50: 0.545 µM
  TGI: 2.03 µM
[2]
  GI50: 0.701 µM
  TGI: 2.37 µM
[3]
  GI50: 0.416 µM
  TGI: 1.67 µM
[4]
  GI50: 0.902 µM
  TGI: 2.35 µM
[5]
  GI50: 0.829 µM
  TGI: 4.93 µM
[6]
  GI50: 0.203 µM
  TGI: 0.604 µM
[7]
  GI50: 1.83 µM
  TGI: 4.42 µM
[8]
  GI50: 0.619 µM
  TGI: 3.89 µM
[9]
  GI50: 1.55 µM
  TGI: 3.69 µM
[10]
  GI50: 1.56 µM
  TGI: 3.77 µM
[11]
  GI50: 1.68 µM
  TGI: 3.28 µM
[12]
  GI50: 0.275 µM
  TGI: 1.17 µM
[13]
  GI50: 0.285 µM
  TGI: 0.801 µM
[14]
  GI50: 0.258 µM
  TGI: 0.835 µM
[15]
  GI50: 0.706 µM
  TGI: 1.93 µM
[16]
  GI50: 1.09 µM
  TGI: 2.48 µM
[17]
  GI50: 0.84 µM
  TGI: 2.35 µM
[18]
  GI50: 0.66 µM
  TGI: 2 µM
[19]
  GI50: 1.75 µM
  TGI: 5.84 µM
[20]
  GI50: 0.356 µM
  TGI: 1.59 µM
[21]
  GI50: 1.91 µM
  TGI: 3.64 µM
[22]
  GI50: 2.24 µM
  TGI: 4.97 µM
[23]
  GI50: 1.43 µM
  TGI: 3.16 µM
[24]
  GI50: 0.376 µM
  TGI: 1.64 µM
[25]
  GI50: 1.48 µM
  TGI: 3.86 µM
[26]
  GI50: 1.71 µM
  TGI: 3.62 µM
[27]
  GI50: 1.14 µM
  TGI: 2.84 µM
[28]
  GI50: 0.498 µM
  TGI: 1.65 µM
[29]
  GI50: 0.337 µM
  TGI: 1.3 µM
[30]
  GI50: 0.991 µM
  TGI: 4.08 µM
[31]
  GI50: 1.34 µM
  TGI: 2.77 µM
[32]
  GI50: 1.29 µM
  TGI: 3.45 µM
[33]
  GI50: 1.2 µM
  TGI: 2.51 µM
[34]
  GI50: 0.372 µM
  TGI: 2.32 µM
[35]
  GI50: 1.55 µM
  TGI: 4.65 µM
[36]
  GI50: 0.843 µM
  TGI: 2.85 µM
[37]
  GI50: 0.913 µM
  TGI: 2.9 µM
[38]
  GI50: 1.76 µM
  TGI: 3.22 µM
[39]
  GI50: 1.03 µM
  TGI: 4.07 µM
[40]
  GI50: 2.04 µM
  TGI: 4.09 µM
[41]
  GI50: 1.68 µM
  TGI: 3.09 µM
[42]
  GI50: 1.22 µM
  TGI: 5.36 µM
[43]
  GI50: 1.2 µM
  TGI: 2.83 µM
[44]
  GI50: 0.664 µM
  TGI: 2.69 µM
[45]
  GI50: 0.628 µM
  TGI: 2.9 µM
[46]
  GI50: 0.238 µM
  TGI: 0.634 µM
[47]
  GI50: 0.943 µM
  TGI: 2.54 µM
[48]
  GI50: 1.51 µM
  TGI: 4.99 µM
[49]
  GI50: 1.27 µM
  TGI: 3.08 µM
[50]
  GI50: 1.79 µM
  TGI: 4.39 µM
[51]
  GI50: 1.03 µM
  TGI: 2.5 µM
[52]
  GI50: 1.78 µM
  TGI: 7.55 µM
[53]
  GI50: 1.29 µM
  TGI: 2.62 µM
[54]
  GI50: 2.05 µM
  TGI: 4.1 µM
[55]
  GI50: 0.997 µM
  TGI: 6.59 µM
[56]
  GI50: 1.41 µM
  TGI: 3.58 µM
[57]
  GI50: 0.649 µM
  TGI: 2.17 µM
